This passage reports IC50 and Ki results from ChEMBL document CHEMBL1130631, “Synthesis of benzo[c]quinolizin-3-ones: selective non-steroidal inhibitors of steroid 5 alpha-reductase 1” (Bioorg Med Chem Lett, 1998).

Experiment [1] has as its target T1, 3-oxo-5-alpha-steroid 4-dehydrogenase 2 (Homo sapiens, UniProt P31213).
T1 sequence (P31213 whole entry): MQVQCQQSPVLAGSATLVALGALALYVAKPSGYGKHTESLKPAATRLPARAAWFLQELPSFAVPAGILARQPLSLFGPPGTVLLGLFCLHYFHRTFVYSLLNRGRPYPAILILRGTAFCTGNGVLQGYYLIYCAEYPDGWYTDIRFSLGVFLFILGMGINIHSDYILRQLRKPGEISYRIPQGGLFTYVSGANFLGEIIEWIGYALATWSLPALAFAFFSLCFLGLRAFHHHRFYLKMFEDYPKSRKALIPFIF
The experiment can be described thus: Compound was evaluated for the inhibition of human Steroid 5-alpha-reductase type 2 receptor from human prostate homogenates. Type of experiment: tissue-based, Prostate gland.

For experiment [2], the target named is T2, 3-oxo-5-alpha-steroid 4-dehydrogenase 1 (Homo sapiens, UniProt P18405).
T2 sequence (P18405 whole entry): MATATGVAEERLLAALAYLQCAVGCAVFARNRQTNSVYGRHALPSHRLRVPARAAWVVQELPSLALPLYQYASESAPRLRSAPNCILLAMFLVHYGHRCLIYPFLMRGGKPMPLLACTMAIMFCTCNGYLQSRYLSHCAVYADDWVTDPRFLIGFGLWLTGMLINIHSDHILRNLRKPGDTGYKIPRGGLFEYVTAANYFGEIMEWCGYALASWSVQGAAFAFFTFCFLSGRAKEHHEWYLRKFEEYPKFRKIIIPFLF
The experiment can be described thus: Compound was evaluated for the inhibition of human Steroid 5-alpha-reductase type 1.

Experiment [3] addresses T1, 3-oxo-5-alpha-steroid 4-dehydrogenase 2. The experiment can be described thus: Compound was evaluated for the inhibition of human Steroid 5-alpha-reductase type 2.
Experiment [4] addresses T2, 3-oxo-5-alpha-steroid 4-dehydrogenase 1. Nature of the experiment: Compound was evaluated for the inhibition of human Steroid 5-alpha-reductase type 1.
The target is the same in experiment [5]. The experiment can be described thus: Compound was evaluated for the inhibition of human Steroid 5-alpha-reductase type 1 from recombinant CHO cells. The format is cell-based.
Experiment [6] concerns the target T1, 3-oxo-5-alpha-steroid 4-dehydrogenase 2. Nature of the experiment: Compound was evaluated for the inhibition of human Steroid 5-alpha-reductase type 2 receptor from human prostate homogenates. Type of experiment: tissue-based, Prostate gland.
The target is the same in experiment [7]. Nature of the experiment: Compound was evaluated for the inhibition of human Steroid 5-alpha-reductase type 2 from human prostate homogenates.; No inhibition. Type of experiment: tissue-based, Prostate gland.
Experiment [8] shares this target. The experiment can be described thus: Compound was evaluated for the inhibition of human Steroid 5-alpha-reductase type 2 from human prostate homogenates; No inhibition. Type of experiment: tissue-based, Prostate gland.

In general, IC50 refers to the concentration needed to halve the response being measured. In the case of `CC(C)(C)NC(=O)[C@@H]1CCC2C3CCC4=CC(=O)CCN4C3=CC[C@@]21C` (stereo not given in full), the IC50 in experiment [1] was 122 nM; in experiment [2], 127 nM.

A word on the Ki: it is a dissociation constant, usually derived from enzyme kinetics or from competition with a known ligand. Take `CN1C(=O)CC[C@]2(C)c3ccc(Cl)cc3CCC12` (stereo not given in full): the Ki in experiment [3] is above 1000 nM; in experiment [4], 9 nM.

Turning to `CC(C)(C)NC(=O)[C@H]1CC[C@H]2[C@@H]3CC[C@H]4NC(=O)C=C[C@]4(C)[C@H]3CC[C@]12C` [FINASTERIDE], the IC50 in experiment [5] was determined as 911 nM; in experiment [6] it was 1.2 nM.

For `O=C1C=C2CCc3ccccc3N2CC1`, the values for the IC50 in experiment [5] and in experiment [7] were 298 nM and “Not Active”, respectively.

As for `O=C1C=CN2c3ccccc3CCC2C1` (stereo not given), the 50% inhibitory concentration (IC50) in experiment [5] was 5130 nM; in experiment [8] it was “Not Active”.
